Holding throughout (assay type): in vivo, Balb/c mice
Test [1] relates to anti-β-lactoglobulin IgE. The test can be described thus: Oral tolerance mouse model: anti-β-lactoglobulin IgE ELISA titer. The conditions noted are these: synthetic peptide given orally; for IgE titer (log) (test/control): test value of the test/control pair (control 3.39), mice then immunized with β-lactoglobulin. As for the experimental part: (§1) For assessing the tolerogenic properties of the various peptides female Balb/c mice were used, obtained from IFFA-Crédo (L'Abresle France). The animals were all bred and raised on a milk free diet. At the beginning of the experiments the animals were 3 weeks old. They received by gavage native β-lactoglobulin (5 mg/g of body weight), various amounts of digested β-lactoglobulin and various amounts of the different peptides obtained under a) above. Control mice were fed saline water. After 5 days on such a diet all mice were immunized with β-lactoglobulin and ovalbumin (grade V, Sigma) as a non related antigen in order to assess the specificity of the immune response. A delayed type hypersensitivity evaluation (DTH) was performed 21 days after the systemic challenge by comparing the thickness of the left rear footpad, prior to and after the immunization. 24 hours after the immunization the foot pad thickness of the animals were measured (expressed in Δ thickness (mm)). Subsequently, blood was taken from all mice, followed by talking the spleens, that were pooled according to group treatment. Splenocyte specific proliferation assays were performed for each group. The intestinal contents were individually collected. Serum and intestinal samples were individually frozen at −80° C. until performance of the respective assays. Anti-β-lactoglobulin IgE and anti-ovalbumin IgE levels were determined both in serum and intestinal samples.
The serum and intestinal fluids were diluted and assayed in duplicate for anti-β-lactoglobulin and anti-ovalbumin IgE antibodies using ELISA. Pooled samples of 20 non immunized mice were used as negative controls. The titers were determined by calculating the dilution of the sample, that gave twice the absorbance of the negative control. The titers were expressed as the log10 of the reciprocal of he dilution
(§2) The synthetic peptides were analysed for their tolerogenic capacity in the […] mouse model.
A general note: In an ELISA, binding on a coated surface is turned into a signal by an enzyme label.

Test [2] relates to Spleen lymphocyte. Put plainly: Splenocyte specific proliferation assay ([3H]-Thy, stimulation index). Conditions: synthetic peptide given orally; for Spleen lymphocyte SI (test/control): SI: Stimulation Index; for T cell proliferation / T cell response: result in words. As for the experimental part: as §1
Spleen cell solutions were homogenized in PBS and purified. The cells were co-cultured in the presence of β-lactoglobulin or phytohemagglutinin A. Tritiated thymidine ([^3H]-Thy (Amersham, Zürich) was added during the last 6 hours of culture and the plates were harvested and analyzed by scintillation counting. Stimulation indices were calculated as the ratio of blank-substracted test and control levels expressed as the mean cpm of [^3H]-Thy incorporated by triplicate cultures.
as §2

The test system of test [3] is MLN lymphocytes. The test can be described thus: Mesenteric lymph node lymphocyte proliferation (stimulation index). The conditions noted are these: synthetic peptide given orally.

Consider “T-6/T-17: synthetic β-lactoglobulin peptide (residues 84-100), SEQ ID 24: CFKIDALNENKVLVLDTDYKKYS (CFKIDALNENKVLVLDTDYKKYS)”, for which, in test [1], the “IgE titer (log) (test/control)” value is 3.40/3.39 log. For the same substance, the “Spleen lymphocyte SI (test/control)” value in test [2] is given as 0.92. In addition, in test [3], the “MLN lymphocytes SI (test/control)” value came out at 0.81.

Take “T-6: synthetic β-lactoglobulin peptide (residues 84-91 with flanking residues and extra Cys), SEQ ID 22: C F K I D A L N E N K V S R (CFKIDALNENKVSR)”: the “IgE titer (log) (test/control)” value in test [1] was 3.24/3.39 log. Further, in test [2], the “Spleen lymphocyte SI (test/control)” value is given as 0.53 and the “T cell proliferation / T cell response” value is given as “suppressed”. This substance had an MLN lymphocytes SI (test/control) in test [3] of 0.29.

Take “T-13: control peptide, N-terminus of β-lactoglobulin (residues 1-8), SEQ ID 25: L I V T Q T M K S R C (LIVTQTMKSRC) [reference compound]”: the “oral tolerance to BLG” value in test [1] (result in words) is “did not induce”. For the same substance, in test [1], the “IgE titer (log) (test/control)” value is listed as 3.20/3.39 log. Besides, the “Spleen lymphocyte SI (test/control)” value in test [2] is given as 1.70. For the same substance, the “MLN lymphocytes SI (test/control)” value in test [3] came out at 0.87.

With “T-17: synthetic β-lactoglobulin peptide (residues 92-100 with flanking residues and extra Cys), SEQ ID 23: C N K V L V L D T D Y K K Y S (CNKVLVLDTDYKKYS)”, the IgE production entry in test [1] (result in words) is “reduced”. In addition, the “IgE titer (log) (test/control)” value in test [1] is recorded as 2.67/3.39 log. Besides, in test [2], the “Spleen lymphocyte SI (test/control)” value was found to be 0.31 and the “T cell proliferation / T cell response” value is “reduced”. The “MLN lymphocytes SI (test/control)” value in test [3] is given as 0.41.

The record behind these values is patent US7498162B2, “Lactic acid bacteria capable of reducing an individual's tendency to develop allergic reactions” (Nestec S.A., priority 2000, dated 2009).
